According to patent publication US9441238B2, “Compositions and methods for modulating the sensitivity of cells to AHAS inhibitors” (SYNTHETIC GENOMICS, INC., priority 2012, dated 2016):

What was measured:
AHAS = conditions: previously reported, several organisms; cited from earlier work
Nannochloropsis sp. = experiment: Growth inhibition of Nannochloropsis by herbicide in growth media; type: cell-based

For `COC(=O)c1ccccc1S(=O)(=O)NC(=O)Nc1nc(C)nc(OC)n1` [metsulfuron methyl], the “inhibitor of AHAS activity” value (AHAS) is listed as “potent inhibitor”, the “growth of Nannochloropsis sp.” value (Nannochloropsis sp.) is listed as “strongly inhibited” and the “concentration that could be used to effectively suppress wild-type growth” value (Nannochloropsis sp.; wild-type) is listed as 30 µM.
